Measured values: patent US6274715A, “Tricyclic erythromycin derivatives” (priority 1997, dated 2001)
In brackets after ≈: the same amount, converted by molar mass.

Assays:
Format in all cases: cell-based
[1] = system: STREPTOCOCCUS BOVIS A-5169; assay: In vitro antibacterial activity, MIC, BHI agar dilution; details: S. bovis A-5169, unit assumed
[2] = system: STAPHYLOCOCCUS AUREUS CMX 642A; assay: as above; details: S. aureus CMX 642A, unit assumed
ESCHERICHIA COLI H560 = assay: as above; details: E. coli H560, unit assumed
[3] = system: STREPTOCOCCUS PYOGENES 930; assay: as above; details: S. pyogenes 930, unit assumed
[4] = system: STAPHYLOCOCCUS AUREUS A5177; assay: as above; details: S. aureus A5177, unit assumed
ESCHERICHIA COLI SS = assay: as above; details: E. coli SS, unit assumed
[5] = system: PSEUDOMONAS AERUGINOSA 5007; assay: as above; details: P. aeruginosa 5007, unit assumed
[6] = system: STAPHYLOCOCCUS AUREUS NCTC10649M; assay: as above; details: S. aureus NCTC10649M, unit assumed
[7] = system: STAPHYLOCOCCUS AUREUS 1775; assay: as above; details: S. aureus 1775, unit assumed
[8] = system: STAPHYLOCOCCUS AUREUS ATCC 6538P; assay: as above; details: S. aureus ATCC 6538P, 35-37° C., 20 to 24 hours, unit assumed
[9] = system: PSEUDOMONAS AERUGINOSA DPHD-2862; assay: as above; details: P. aeruginosa DPHD-2862, unit assumed
[10] = system: ENTEROBACTER AEROGENES ATCC 13048; assay: as above; details: E. aerogenes ATCC 13048, unit assumed
[11] = system: ACINETOBACTER CALCOACETICUS CMX 669; assay: as above; details: A. calcoaceticus CMX 669, unit assumed
ESCHERICHIA COLI KNK 437 = details: E. coli KNK 437; BHI agar; unit assumed
[12] = system: STAPHYLOCOCCUS EPIDERMIDIS 3519; details: S. epidermidis 3519; BHI agar; unit assumed
[13] = system: PROVIDENCIA STUARTII CMX 640; details: P. stuartii CMX 640; BHI agar; unit assumed
[14] = system: STAPHYLOCOCCUS AUREUS CMX 553; assay: In vitro antibacterial activity, MIC, BHI agar dilution; details: S. aureus CMX 553, unit assumed
PSEUDOMONAS CEPACIA 296I = assay: as above; details: P. cepacia 296I, unit assumed
[15] = system: PSEUDOMONAS AERUGINOSA BMH10; assay: as above; details: P. aeruginosa BMH10, unit assumed
[16] = system: STAPHYLOCOCCUS AUREUS A-5278; assay: as above; details: S. aureus A-5278, unit assumed
M[…] ATCC 4698 = assay: as above; details: M. luteus ATCC 4698, unit assumed
Outline: (§1)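 MIC was read visually as the lowest drug level with no growth, a slight haze or sparsely isolated colonies relative to a compound-free growth control. Organisms were spotted at 1:100 dilution (1:10 for slow-growing strains) onto Brain Heart Infusion agar containing serial compound dilutions and incubated 20 to 24 hours at 35-37° C.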

STR[…] 508 = assay: as above; details: S. agalactiae CMX 508, unit assumed
Outline: as §1

EN[…] ATCC 8043 = assay: as above; details: E. faecium ATCC 8043, unit assumed
Outline: as §1

M[…] ATCC 9341 = assay: as above; details: M. luteus ATCC 9341, unit assumed
Outline: as §1

[17] = system: KLEBSIELLA PNEUMONIAE ATCC 8045; assay: as above; details: K. pneumoniae ATCC 8045, unit assumed
[18] = system: PSEUDOMONAS AERUGINOSA K799/WT; assay: as above; details: P. aeruginosa K799/WT, unit assumed
ESCHERICHIA COLI DC-2 = assay: as above; details: E. coli DC-2, unit assumed
[19] = system: PSEUDOMONAS AERUGINOSA DPHD-5263; assay: as above; details: P. aeruginosa DPHD-5263, unit assumed
CANDIDA ALBICANS CCH 442 = assay: as above; details: C. albicans CCH 442, unit assumed
[20] = system: MYCOBACTERIUM SMEGMATIS ATCC 114; assay: as above; details: M. smegmatis ATCC 114, unit assumed
[21] = system: STREPTOCOCCUS PYOGENES EES61; assay: as above; details: S. pyogenes EES61, unit assumed
[22] = system: PSEUDOMONAS AERUGINOSA K799/61; assay: as above; details: P. aeruginosa K799/61, unit assumed
ESCHERICHIA COLI JUHL = details: E. coli JUHL; BHI agar; unit assumed
[23] = system: STREPTOCOCCUS PYOGENES PIU 2548; assay: In vitro antibacterial activity, MIC, BHI agar dilution; details: S. pyogenes PIU 2548, unit assumed

Structure (SMILES) | MIC [1] [µg/mL] | MIC [2] [µg/mL] | MIC (ESCHERICHIA COLI H560) [µg/mL] | MIC [3] [µg/mL] | MIC (ESCHERICHIA COLI SS) [µg/mL] | MIC [5] [µg/mL] | MIC [7] [µg/mL] | MIC [8] [µg/mL] | MIC [9] [µg/mL] | MIC [10] [µg/mL] | MIC [11] [µg/mL] | MIC (ESCHERICHIA COLI KNK 437) [µg/mL] | MIC [12] [µg/mL] | MIC [13] [µg/mL] | MIC [14] [µg/mL] | MIC (PSEUDOMONAS CEPACIA 296I) [µg/mL] | MIC [15] [µg/mL] | MIC [16] [µg/mL] | MIC (M[…] ATCC 4698) [µg/mL] | MIC (STR[…] 508) [µg/mL] | further results
CC[C@H]1OC(=O)[C@H](C)C(=O)[C@H](C)[C@@H](O[C@@H]2O[C@H](C)C[C@H](N(C)C)[C@H]2O)[C@](C)(OC)C[C@@H](C)C2=NC[C@H](CO)N3C(=O)O[C@@]1(C)[C@H]3[C@H]2C [Example 63] | 0.05 (≈ 0.0749 µM) | 1.56 (≈ 2.34 µM) | 50 (≈ 74.9 µM) | > 100 | 0.78 (≈ 1.17 µM) | > 100 | > 100 | 0.78 (≈ 1.17 µM) | > 100 | > 100 | 100 (≈ 150 µM) | > 100 | 0.78 (≈ 1.17 µM) | > 100 | 1.56 (≈ 2.34 µM) | > 100 | > 100 | > 100 | 0.78 (≈ 1.17 µM) | 0.2 (≈ 0.299 µM) | MIC [4]: 0.78 µg/mL (≈ 1.17 µM); MIC [6]: 0.78 µg/mL (≈ 1.17 µM); MIC (EN[…] ATCC 8043): 0.2 µg/mL (≈ 0.299 µM); MIC (M[…] ATCC 9341): 0.2 µg/mL (≈ 0.299 µM); MIC [17]: > 100 µg/mL; MIC [18]: > 100 µg/mL; MIC (ESCHERICHIA COLI DC-2): > 100 µg/mL; MIC [19]: > 100 µg/mL; MIC (CANDIDA ALBICANS CCH 442): > 100 µg/mL; MIC [20]: 6.2 µg/mL (≈ 9.28 µM); MIC [21]: 0.1 µg/mL (≈ 0.15 µM)
CC[C@H]1OC(=O)[C@H](C)C(=O)[C@H](C)[C@@H](O[C@@H]2O[C@H](C)C[C@H](N(C)C)[C@H]2O)[C@](C)(OC)C[C@@H](C)C2=N[C@H](COCc3ccccc3Cl)CN3C(=O)O[C@@]1(C)[C@H]3[C@H]2C [Example 78] | ≤ 0.005 | 0.78 (≈ 0.984 µM) | > 100 | 25 (≈ 31.5 µM) | 1.56 (≈ 1.97 µM) | > 100 | 100 (≈ 126 µM) | 0.39 (≈ 0.492 µM) | > 100 | > 100 | 100 (≈ 126 µM) | > 100 | 0.39 (≈ 0.492 µM) | > 100 | 0.78 (≈ 0.984 µM) | > 100 | > 100 | 100 (≈ 126 µM) | 0.39 (≈ 0.492 µM) | ≤ 0.005 | MIC [22]: 3.1 µg/mL (≈ 3.91 µM); MIC [6]: 0.39 µg/mL (≈ 0.492 µM); MIC (ESCHERICHIA COLI JUHL): > 100 µg/mL; MIC (EN[…] ATCC 8043): 0.05 µg/mL (≈ 0.0631 µM); MIC (M[…] ATCC 9341): 0.02 µg/mL (≈ 0.0252 µM); MIC [23]: 0.2 µg/mL (≈ 0.252 µM); MIC [17]: > 100 µg/mL; MIC [18]: > 100 µg/mL; MIC (ESCHERICHIA COLI DC-2): > 100 µg/mL; MIC [19]: > 100 µg/mL; MIC (CANDIDA ALBICANS CCH 442): 100 µg/mL (≈ 126 µM); MIC [20]: 0.78 µg/mL (≈ 0.984 µM); MIC [21]: ≤ 0.005 µg/mL
CC[C@H]1OC(=O)[C@H](C)C(=O)[C@H](C)[C@@H](O[C@@H]2O[C@H](C)C[C@H](N(C)C)[C@H]2O)[C@](C)(OC)C[C@@H](C)C2=N[C@H](COCc3ccc(Cl)cc3)CN3C(=O)O[C@@]1(C)[C@H]3[C@H]2C [Example 79] | 0.01 (≈ 0.0126 µM) | 0.39 (≈ 0.492 µM) | > 100 | 50 (≈ 63.1 µM) | 1.56 (≈ 1.97 µM) | > 100 | 100 (≈ 126 µM) | 0.39 (≈ 0.492 µM) | > 100 | > 100 | 100 (≈ 126 µM) | > 100 | 0.39 (≈ 0.492 µM) | > 100 | 0.39 (≈ 0.492 µM) | 100 (≈ 126 µM) | > 100 | 100 (≈ 126 µM) | 0.39 (≈ 0.492 µM) | ≤ 0.005 | MIC [22]: 3.1 µg/mL (≈ 3.91 µM); MIC [6]: 0.39 µg/mL (≈ 0.492 µM); MIC (ESCHERICHIA COLI JUHL): > 100 µg/mL; MIC (EN[…] ATCC 8043): 0.1 µg/mL (≈ 0.126 µM); MIC (M[…] ATCC 9341): 0.05 µg/mL (≈ 0.0631 µM); MIC [23]: 0.39 µg/mL (≈ 0.492 µM); MIC [17]: > 100 µg/mL; MIC [18]: > 100 µg/mL; MIC (ESCHERICHIA COLI DC-2): > 100 µg/mL; MIC [19]: > 100 µg/mL; MIC (CANDIDA ALBICANS CCH 442): 100 µg/mL (≈ 126 µM); MIC [20]: 0.78 µg/mL (≈ 0.984 µM); MIC [21]: 0.01 µg/mL (≈ 0.0126 µM)
CC[C@H]1OC(=O)[C@H](C)C(=O)[C@H](C)[C@@H](O[C@@H]2O[C@H](C)C[C@H](N(C)C)[C@H]2O)[C@](C)(OC)C[C@@H](C)C2=N[C@H](COCc3cccc(Cl)c3)CN3C(=O)O[C@@]1(C)[C@H]3[C@H]2C [Example 80] | ≤ 0.005 | 0.39 (≈ 0.492 µM) | > 100 | 50 (≈ 63.1 µM) | 1.56 (≈ 1.97 µM) | > 100 | 100 (≈ 126 µM) | 0.39 (≈ 0.492 µM) | > 100 | > 100 | 100 (≈ 126 µM) | > 100 | 0.39 (≈ 0.492 µM) | > 100 | 0.39 (≈ 0.492 µM) | 100 (≈ 126 µM) | > 100 | 100 (≈ 126 µM) | 0.2 (≈ 0.252 µM) | ≤ 0.005 | MIC [22]: 3.1 µg/mL (≈ 3.91 µM); MIC (ESCHERICHIA COLI JUHL): > 100 µg/mL; MIC (EN[…] ATCC 8043): 0.05 µg/mL (≈ 0.0631 µM); MIC (M[…] ATCC 9341): 0.05 µg/mL (≈ 0.0631 µM); MIC [23]: 0.2 µg/mL (≈ 0.252 µM); MIC [17]: > 100 µg/mL; MIC [18]: > 100 µg/mL; MIC (ESCHERICHIA COLI DC-2): > 100 µg/mL; MIC [19]: > 100 µg/mL; MIC (CANDIDA ALBICANS CCH 442): 100 µg/mL (≈ 126 µM); MIC [20]: 1.56 µg/mL (≈ 1.97 µM); MIC [21]: 0.01 µg/mL (≈ 0.0126 µM)
